Test results: patent publication US20090029992A1, “SUBSTITUTED PYRAZOLE COMPOUNDS” (priority 2007, published 2009)

What was measured:
Format in all cases: biochemical
recombinant Aurora A = target: T1, recombinant Aurora A (Homo sapiens, UniProt O14965); test: Aurora A (Aurora 2) inhibition assay, Z'-Lyte kinase assay; details: ATP 10 μM, 1 h
T1 construct: purchased Upstate, Lake Placid, N.Y
T1 sequence (O14965 1-403): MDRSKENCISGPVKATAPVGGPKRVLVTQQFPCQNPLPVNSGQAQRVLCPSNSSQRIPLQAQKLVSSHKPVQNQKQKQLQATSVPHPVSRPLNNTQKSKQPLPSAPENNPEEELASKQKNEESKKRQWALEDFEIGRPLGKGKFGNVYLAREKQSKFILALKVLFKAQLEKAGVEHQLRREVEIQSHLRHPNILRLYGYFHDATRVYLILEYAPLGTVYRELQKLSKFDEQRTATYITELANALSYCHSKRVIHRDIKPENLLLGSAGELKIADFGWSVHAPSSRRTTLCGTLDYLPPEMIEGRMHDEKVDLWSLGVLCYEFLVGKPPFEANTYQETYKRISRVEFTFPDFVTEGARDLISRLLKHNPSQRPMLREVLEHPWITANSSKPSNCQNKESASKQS
Procedure, shortened: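 Z'-Lyte FRET assay: Aurora A (200-500 ng/mL final), Ser/Thr 1 peptide (2 μM) and ATP (10 μM) in 50 mM HEPES pH 7.5, 10 mM MgCl2, 5 mM EGTA, 0.05% Brij-35, 2 mM DTT, 1 h at room temperature. Coumarin/fluorescein emission ratio converted to percent phosphorylation; dose-response curves plotted.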

[1] = target: T2, N-terminal GST-tagged recombinant human Flt3, residues 564-end (Homo sapiens, UniProt P36888); test: Flt3 kinase inhibition assay (33P-ATP filter assay); details: 40 minutes at room temperature
T2 construct: recombinant human Flt3, residues 564-end; GST (N); purchased Upstate USA Inc, 706 Forest Street, Charlottesville, Va
T2 sequence (P36888 564-993 limits assumed): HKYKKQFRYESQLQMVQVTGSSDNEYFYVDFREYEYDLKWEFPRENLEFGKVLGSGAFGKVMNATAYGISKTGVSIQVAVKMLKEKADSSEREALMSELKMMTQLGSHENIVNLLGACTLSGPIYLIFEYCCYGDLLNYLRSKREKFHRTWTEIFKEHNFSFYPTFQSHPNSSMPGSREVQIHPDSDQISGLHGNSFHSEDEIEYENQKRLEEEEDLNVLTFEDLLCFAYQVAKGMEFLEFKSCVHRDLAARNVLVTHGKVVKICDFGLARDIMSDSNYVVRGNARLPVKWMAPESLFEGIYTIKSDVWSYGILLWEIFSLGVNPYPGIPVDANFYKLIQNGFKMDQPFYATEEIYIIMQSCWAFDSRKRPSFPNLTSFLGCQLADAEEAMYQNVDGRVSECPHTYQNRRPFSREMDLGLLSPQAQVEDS
Procedure, shortened: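 Serial compound dilutions incubated 40 min at room temperature with 5-10 mU Flt3 kinase, 50 μM peptide substrate and [γ-33P]ATP/10 mM magnesium acetate, pH 7.0. Phosphoric acid stop, filter capture and scintillation counting; activity compared with uninhibited reactions.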

[2] = target: T3, N-terminal His6-tagged recombinant human KDR, residues 790-end (Homo sapiens, UniProt P35968); test: KDR kinase inhibition assay (33P-ATP filter assay)
T3 construct: recombinant human KDR, residues 790-end; His6 (N); purchased Upstate USA Inc, 706 Forest Street, Charlottesville, Va
Procedure, shortened: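 Radiometric filter assay: reaction started with Mg acetate (10 mM)/[γ-33P]ATP mix, run 40 min at room temperature in 8 mM MOPS pH 7.0 with 0.2 mM EDTA, MBP substrate (0.33 mg/mL) and recombinant KDR 790-end (5-10 mU). Phosphate incorporation by scintillation counting of P30 filtermats, compared with uninhibited reactions.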

[3] = group with IC50 greater than 100 nM

T3 sequence (P35968 790-1356 limits assumed): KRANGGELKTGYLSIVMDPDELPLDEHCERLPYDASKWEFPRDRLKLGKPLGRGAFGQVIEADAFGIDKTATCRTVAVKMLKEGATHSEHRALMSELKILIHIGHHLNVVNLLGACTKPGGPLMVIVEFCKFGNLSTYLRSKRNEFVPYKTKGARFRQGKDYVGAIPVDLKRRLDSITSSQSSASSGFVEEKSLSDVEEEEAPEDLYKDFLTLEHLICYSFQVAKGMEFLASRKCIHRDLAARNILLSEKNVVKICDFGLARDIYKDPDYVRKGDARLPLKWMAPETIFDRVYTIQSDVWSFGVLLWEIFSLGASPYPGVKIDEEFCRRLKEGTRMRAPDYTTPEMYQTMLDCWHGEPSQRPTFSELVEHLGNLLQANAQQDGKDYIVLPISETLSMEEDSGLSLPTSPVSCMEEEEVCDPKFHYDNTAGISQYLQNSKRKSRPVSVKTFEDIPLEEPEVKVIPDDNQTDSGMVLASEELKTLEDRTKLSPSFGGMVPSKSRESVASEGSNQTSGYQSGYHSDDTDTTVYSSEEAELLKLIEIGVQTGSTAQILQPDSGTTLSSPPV

IC50 (recombinant Aurora A; [3]) [nM] | IC50 [1] [nM] | IC50 [2, 3] [nM] | IC50 (recombinant Aurora A) [nM] | IC50 ([2]; 40 minutes at room temperature) [nM] | Compound
≤ 1000 | ≤ 100 | ≤ 1000 | – | – | Cc1cccc(-c2nc(Nc3cc(C)[nH]n3)cc(N(C)CCN(C)C)n2)c1 [Compound 52, N^4-(2-(dimethylamino)ethyl)-N^4-methyl-N^6-(5-methyl-1H-pyrazol-3-yl)-2-m-tolylpyrimidine-4,6-diamine]
– | ≤ 100 | ≤ 1000 | ≤ 100 | – | Cc1cc(Nc2cc(N3CCN(C)CC3)nc(-c3ccc(C(C)(C)C)cc3)n2)n[nH]1 [Compound 82, 2-(4-tert-butylphenyl)-N-(5-methyl-1H-pyrazol-3-yl)-6-(4-methylpiperazin-1-yl)pyrimidin-4-amine]
– | ≤ 100 | – | ≤ 100 | ≤ 100 | Cc1cc(Nc2cc(N3CCN(C)CC3)nc(-c3cccc(F)c3)n2)n[nH]1 [Compound 33, 2-(3-fluorophenyl)-N-(5-methyl-1H-pyrazol-3-yl)-6-(4-methylpiperazin-1-yl)pyrimidin-4-amine]
≤ 1000 | ≤ 100 | ≤ 1000 | – | – | Cc1cc(Nc2cc(N3CCN(C)CC3)nc(-c3ccc(C#N)cc3)n2)n[nH]1 [Example 160, 4-(4-(5-methyl-1H-pyrazol-3-ylamino)-6-(4-methylpiperazin-1-yl)pyrimidin-2-yl)benzonitrile]
≤ 1000 | ≤ 100 | – | – | ≤ 100 | Cc1cc(Nc2cc(N(C)CCN(C)C)nc(-c3ccccc3)n2)n[nH]1 [Compound 9, N^4-(2-(dimethylamino)ethyl)-N^4-methyl-N^6-(5-methyl-1H-pyrazol-3-yl)-2-phenylpyrimidine-4,6-diamine]
– | ≤ 100 | – | ≤ 100 | ≤ 100 | Cc1cc(Nc2cc(NCCN3CCOCC3)nc(-c3ccccc3)n2)n[nH]1 [Compound 11, N^4-(5-methyl-1H-pyrazol-3-yl)-N^6-(2-morpholinoethyl)-2-phenylpyrimidine-4,6-diamine]
– | ≤ 100 | – | ≤ 100 | ≤ 100 | Cc1cc(Nc2cc(N3CCN(C)CC3)nc(-c3cc4ccccc4o3)n2)n[nH]1 [Compound 1, 2-(benzofuran-2-yl)-N-(5-methyl-1H-pyrazol-3-yl)-6-(4-methylpiperazin-1-yl)pyrimidin-4-amine]
– | ≤ 100 | – | ≤ 100 | ≤ 100 | Cc1cc(Nc2cc(N3CCN(C)CC3)nc(-c3ccccc3)n2)n[nH]1 [Compound 8, N-(5-methyl-1H-pyrazol-3-yl)-6-(4-methylpiperazin-1-yl)-2-phenyl pyrimidin-4-amine]
– | ≤ 100 | – | ≤ 100 | ≤ 100 | COCCNc1cc(Nc2cc(C)[nH]n2)nc(-c2ccccc2)n1 [Compound 10, N^4-(2-methoxyethyl)-N^6-(5-methyl-1H-pyrazol-3-yl)-2-phenylpyrimidine-4,6-diamine]
≤ 1000 | ≤ 100 | – | – | ≤ 100 | Cc1cc(Nc2cc(N3CCN(C)CC3)nc(-c3cc(F)ccc3C)n2)n[nH]1 [Example 196, 2-(5-fluoro-2-methylphenyl)-N-(5-methyl-1H-pyrazol-3-yl)-6-(4-methylpiperazin-1-yl)pyrimidin-4-amine]
≤ 1000 | ≤ 100 | – | – | ≤ 100 | Cc1cc(Nc2cc(N3CCN(C)CC3)nc(-c3ccccc3C)n2)n[nH]1 [Compound 40, N-(5-methyl-1H-pyrazol-3-yl)-6-(4-methylpiperazin-1-yl)-2-o-tolylpyrimidin-4-amine]
≤ 1000 | ≤ 100 | ≤ 1000 | – | – | COc1ccc(-c2nc(Nc3cc(C)[nH]n3)cc(N(C)CCN(C)C)n2)cc1 [Compound 54, N^4-(2-(dimethylamino)ethyl)-2-(4-methoxyphenyl)-N^4-methyl-N^6-(5-methyl-1H-pyrazol-3-yl)pyrimidine-4,6-diamine]
– | ≤ 100 | – | ≤ 100 | ≤ 100 | COC(=O)c1cccc(-c2nc(Nc3cc(C)[nH]n3)cc(N3CCN(C)CC3)n2)c1 [Example 166, methyl 3-(4-(5-methyl-1H-pyrazol-3-ylamino)-6-(4-methylpiperazin-1-yl)pyrimidin-2-yl)benzoate]
≤ 1000 | ≤ 100 | ≤ 1000 | – | – | Cc1cc(Nc2cc(NC3CCOCC3)nc(-c3cccc4ccoc34)n2)n[nH]1 [Example 204, 2-(benzofuran-7-yl)-N^4-(5-methyl-1H-pyrazol-3-yl)-N^6-(tetrahydro-2H-pyran-4-yl)pyrimidine-4,6-diamine]
≤ 1000 | ≤ 100 | ≤ 1000 | – | – | Cc1ccc(C)c(-c2nc(Nc3cc(C)[nH]n3)cc(N3CCN(C)CC3)n2)c1 [Example 201, 2-(2,5-dimethylphenyl)-N-(5-methyl-1H-pyrazol-3-yl)-6-(4-methylpiperazin-1-yl)pyrimidin-4-amine]
– | ≤ 100 | – | ≤ 100 | ≤ 100 | Cc1ccc(-c2nc(Nc3cc(C)[nH]n3)cc(N3CCN(C)CC3)n2)cc1 [Compound 38, N-(5-methyl-1H-pyrazol-3-yl)-6-(4-methylpiperazin-1-yl)-2-p-tolylpyrimidin-4-amine]
– | ≤ 100 | – | ≤ 100 | ≤ 100 | Cc1cc(Nc2cc(N3CCN(C)CC3)nc(-c3cccc4ccoc34)n2)n[nH]1 [Example 203, 2-(benzofuran-7-yl)-N-(5-methyl-1H-pyrazol-3-yl)-6-(4-methylpiperazin-1-yl)pyrimidin-4-amine]
≤ 1000 | ≤ 100 | ≤ 1000 | – | – | Cc1cc(Nc2cc(N(C)CCN(C)C)nc(-c3cc4ccccc4n3C)n2)n[nH]1 [Compound 4, N^4-(2-(dimethylamino)ethyl)-N^4-methyl-2-(1-methyl-1H-indol-2-yl)-N^6-(5-methyl-1H-pyrazol-3-yl)pyrimidine-4,6-diamine]
– | ≤ 100 | – | ≤ 100 | ≤ 100 | CC(=O)N1CCN(c2cc(Nc3cc(C)[nH]n3)nc(-c3cc4ccccc4n3C)n2)CC1 [Compound 6, 1-(4-(6-(5-methyl-1H-pyrazol-3-ylamino)-2-(1-methyl-1H-indol-2-yl)pyrimidin-4-yl)-piperazin-1-yl)ethanone]
≤ 1000 | ≤ 100 | ≤ 1000 | – | – | Cc1cc(Nc2cc(NC3CCOCC3)nc(-c3ccc(Cl)cc3)n2)n[nH]1 [Compound 22, 2-(4-chlorophenyl)-N^4-(5-methyl-1H-pyrazol-3-yl)-N^6-(tetrahydro-2H-pyran-4-yl)pyrimidine-4,6-diamine]
– | ≤ 100 | ≤ 1000 | ≤ 100 | – | Cc1cc(Nc2cc(NC3CCOCC3)nc(-c3cccc(-c4ccccc4)c3)n2)n[nH]1 [Example 159, 2-(biphenyl-3-yl)-N^4-(5-methyl-1H-pyrazol-3-yl)-N^6-(tetrahydro-2H-pyran-4-yl)pyrimidine-4,6-diamine]
– | ≤ 100 | ≤ 1000 | ≤ 100 | – | COCCN(C)c1cc(Nc2cc(C)[nH]n2)nc(-c2cccc(N(C)C)c2)n1 [Compound 119, 2-(3-(dimethylamino)phenyl)-N^4-(2-methoxyethyl)-N^4-methyl-N^6-(5-methyl-1H-pyrazol-3-yl)pyrimidine-4,6-diamine]
≤ 1000 | ≤ 100 | – | – | ≤ 100 | CCc1ccccc1-c1nc(Nc2cc(C)[nH]n2)cc(N2CCN(C)CC2)n1 [Example 175, 2-(2-ethylphenyl)-N-(5-methyl-1H-pyrazol-3-yl)-6-(4-methylpiperazin-1-yl)pyrimidin-4-amine]
– | ≤ 100 | ≤ 1000 | ≤ 100 | – | Cc1cc(Nc2cc(N3CCN(C)CC3)nc(-c3cccnc3)n2)n[nH]1 [Compound 89, N-(5-methyl-1H-pyrazol-3-yl)-6-(4-methylpiperazin-1-yl)-2-(pyridin-3-yl)pyrimidin-4-amine]

Compound | IC50 (recombinant Aurora A; [3]) [nM] | IC50 [1] [nM] | IC50 [2, 3] [nM] | IC50 (recombinant Aurora A) [nM] | IC50 ([2]; 40 minutes at room temperature) [nM]
Cc1cc(Nc2cc(N3CCN(C)CC3)nc(-c3cccc(F)c3F)n2)n[nH]1 [Example 200] | ≤ 1000 | ≤ 100 | – | – | ≤ 100
